Laboratory results reported in US9447130B1, “Process for the preparation of dicycloplatin” (Syn-Nat Products Enterprise LLC, priority 2015, dated 2016).

Experiments:
[1] = stability of dicycloplatin to heat / hot water (evaporation, slurry); format: physicochemical
Experimental: • 1) Dissolved 50.0 mg of carboplatin (135 μmol) in 2.8 mL of water in a 3-mL glass vial at RT. • 2) Added 19.4 mg of 1,1-cyclobutane dicarboxylic acid (135 μmol) into the same vial. • 3) Stirred the suspension at RT to obtain a clear solution. • 4) Transferred the clear solution to a 25-mL round-bottom flask and rotary evaporated at a temperature between 50° C. and 55° C. to obtain white crystal solid. • 5) Air-dried the solid to obtain a product.
(§1) Moreover, in additional polymorph studies of dicycloplatin, it was recognized that the use of shorter aliphatic alcohols (as reported in U.S. Pat. No. 6,699,901) such as methanol, ethanol, isopropanol and butanol led to a significant amount of carboplatin being left in the product because of disproportionation. […] Thus, recrystallization in water was not efficient and was difficult to scale up.

[2] = cited from earlier work
[3] = water solubility of dicycloplatin; format: physicochemical; settings: room temperature
Excerpt: as §1

dicycloplatin
thermal stability during evaporation ([1]; evaporation step of the reported process (U.S. Pat. No. 6,699,901)): sensitive to high temperature | stability of a slurry in hot water ([1]; slurry in hot water): partial hydrolysis | recommended Phase II dosage ([2]; DCP-containing chemotherapy): 450 mg/m^2 | bioavailability and stability in vivo ([2]; in vivo, Chinese cancer patients): favorable | water solubility [3]: 40 mg/mL
